Results published in US20260042764A1, “COMPOSITIONS AND METHODS FOR INHIBITION OF KRAS” (TheRas, Inc., priority 2022, published 2026).

Columns and labels:
GP2d cells (KRAS G12D) = assay: Cell-based pERK HTRF assay in GP2d cell (Biological Example 2); conditions: GP2d (KRAS G12D) cells, pERK HTRF
Outline: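 Phospho-ERK is measured by HTRF following a 60 min compound exposure at 0.25% DMSO, with a 9-point half-log curve topping at 1 μM or 100 nM.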

[1] = target: T1, Avi-KRAS G12R (1-169) GppNHp/RAF1 RBD-3xFLAG (52-151) (Homo sapiens, UniProt P01116, G12R); assay: Raf1-KRAS G12R-GppNHP disruption HTRF assay (Biological Example 1); type: binding; conditions: KRAS G12R, GppNHp-loaded; Table 11
T1 construct: Avi-KRAS G12R (1-169)
T1 sequence (P01116 1-169 isoform P01116-2 G12R): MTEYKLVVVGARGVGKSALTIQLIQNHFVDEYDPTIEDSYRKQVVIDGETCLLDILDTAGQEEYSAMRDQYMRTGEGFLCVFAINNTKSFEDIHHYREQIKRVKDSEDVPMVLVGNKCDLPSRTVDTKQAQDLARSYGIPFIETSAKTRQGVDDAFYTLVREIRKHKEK
Protocol: A protein:protein interaction (PPI) Homogeneous Time Resolved Fluorescence (HTRF) assay was used to determine the effectiveness of compounds of the present disclosure in disrupting KRAS protein and effector RAF1 binding.
The assay buffer included: 50 mM Tris pH 7.5, 100 mM NaCl, 5 mM MgCl2, 0.1% BSA, 0.01% Tween, and 10% DMSO. The bead buffer included: 50 mM Tris pH 7.5, and 0.01% Tween 20. Assay volume of 20 μL was used in a 384 well plate-low volume format.
The HTRF assay employed the following protocol:
Protein mix was prepared in assay buffer, and dispensed on plates, 10 μL per well, then incubated for 1 h at room temperature, with 700 rpm shaking, Reagents mix was prepared and dispensed on plates, 10 μL per well, then incubated for 1 h at room temperature, with 700 rpm shaking.
Data was reported as percentage of activity, with DMSO as 100%. Data was plotted and analyzed using Prism 8.

[2] = target: T2, Avi-KRAS G12V (1-169) GppNHp/RAF1 RBD-3xFLAG (52-151) (Homo sapiens, UniProt P01116, G12V); assay: Raf1-KRAS G12V-GppNHP disruption HTRF assay (Biological Example 1); type: binding; conditions: KRAS G12V, GppNHp-loaded; Table 11
T2 construct: Avi-KRAS G12V (1-169)
T2 sequence (P01116 1-169 isoform P01116-2 G12V): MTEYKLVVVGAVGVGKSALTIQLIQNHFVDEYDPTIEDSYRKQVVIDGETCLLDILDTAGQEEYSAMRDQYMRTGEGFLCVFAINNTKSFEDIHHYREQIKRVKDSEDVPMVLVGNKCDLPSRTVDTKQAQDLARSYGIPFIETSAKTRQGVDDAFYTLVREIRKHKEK
Outline: (§1)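 Read-out is HTRF signal of the KRAS–RAF1 RBD complex, reported as percentage of activity relative to DMSO (100%). Protein mix and detection reagents each incubated 1 h at room temperature with 700 rpm shaking. Buffer: 50 mM Tris pH 7.5, 100 mM NaCl, 5 mM MgCl2, 0.1% BSA, 0.01% Tween, 10% DMSO.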

[3] = target: T3, Avi-KRAS G12D (1-169) GppNHp/RAF1 RBD-3xFLAG (52-151) (Homo sapiens, UniProt P01116, G12D); assay: Raf1-KRAS G12D-GppNHP disruption HTRF assay (Biological Example 1); type: binding; conditions: KRAS G12D, GppNHp-loaded; Table 11
T3 construct: Avi-KRAS G12D (1-169)
T3 sequence (P01116 1-169 isoform P01116-2 G12D): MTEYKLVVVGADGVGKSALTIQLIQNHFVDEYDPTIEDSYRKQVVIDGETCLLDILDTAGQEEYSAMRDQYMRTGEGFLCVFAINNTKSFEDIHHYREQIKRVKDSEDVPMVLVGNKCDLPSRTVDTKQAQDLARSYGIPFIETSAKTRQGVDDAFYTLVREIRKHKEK
Outline: as §1

[4] = target: T4, Avi-KRAS WT (1-169) GppNHp/RAF1 RBD-3xFLAG (52-151) (Homo sapiens, UniProt P01116); assay: Raf1-KRAS WT-GppNHP disruption HTRF assay (Biological Example 1); type: binding; conditions: KRAS WT, GppNHp-loaded; Table 11
T4 construct: Avi-KRAS WT (1-169)
T4 sequence (P01116 1-169 isoform P01116-2): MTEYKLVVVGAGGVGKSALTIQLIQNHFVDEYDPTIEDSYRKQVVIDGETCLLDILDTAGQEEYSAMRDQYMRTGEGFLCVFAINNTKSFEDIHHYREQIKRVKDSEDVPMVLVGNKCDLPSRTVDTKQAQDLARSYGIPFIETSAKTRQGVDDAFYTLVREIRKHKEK
Outline: as §1

| SMILES | IC50 (GP2d cells (KRAS G12D); GP2d) [nM] | IC50 [1] [nM] | IC50 [2] [nM] | IC50 [3] [nM] | IC50 [4] [nM] | IC50 (GP2d cells (KRAS G12D)) [nM] |
| --- | --- | --- | --- | --- | --- | --- |
| C[C@H]1COCCN1c1nc(OC[C@@]23CCCN2C[C@H](F)C3)nc2c(F)c(-c3ccc(F)c4sc(N)c(C#N)c34)c(C(F)(F)F)cc12 [Compound 135] | < 100 | 100 to 1000 | 100 to 1000 | < 100 | 100 to 1000 | – |
| CC(=O)N1CCC(N(C)c2nc(OC[C@@]34CCCN3C[C@H](F)C4)nc3c(F)c(-c4ccc(F)c5sc(N)c(C#N)c45)c(C(F)(F)F)cc23)[C@H]1C (stereo partly drawn) [Compound 114] | < 100 | 100 to 1000 | 100 to 1000 | 100 to 1000 | 100 to 1000 | – |
| CCN(CCO)c1nc(OC[C@@H]2C[C@@H](OC)CN2C)nc2c(F)c(-c3ccc(F)c4sc(N)c(C#N)c34)c(C(F)(F)F)cc12 [Compound 178] | – | 100 to 1000 | 1000 to 10000 | 100 to 1000 | 1000 to 10000 | < 100 |
| CCN(c1nc(OC[C@@]23CCCN2C[C@H](F)C3)nc2c(F)c(-c3ccc(F)c4sc(N)c(C#N)c34)c(C(F)(F)F)cc12)[C@H]1C[C@@H](O)C1 [Compound 26, 2-amino-4-[4-[ethyl-(3-hydroxycyclobutyl)amino]-8-fluoro-2-[[(2R,8S)-2-fluoro-1,2,3,5,6,7-hexahydropyrrolizin-8-yl]methoxy]-6-(trifluoromethyl)quinazolin-7-yl]-7-fluoro-benzothiophene-3-carbonitrile] | < 100 | 100 to 1000 | 100 to 1000 | < 100 | 100 to 1000 | – |
| CCN(C)c1nc(OC[C@@]23CCCN2C[C@H](F)C3)nc2c(F)c(-c3ccc(F)c4sc(N)c(C#N)c34)c(C(F)(F)F)cc12 [Compound 81, 2-amino-4-[4-[ethyl(methyl)amino]-8-fluoro-2-[[(2R,8S)-2-fluoro-1,2,3,5,6,7-hexahydropyrrolizin-8-yl]methoxy]-6-(trifluoromethyl)quinazolin-7-yl]-7-fluoro-benzothiophene-3-carbonitrile] | < 100 | < 100 | 100 to 1000 | < 100 | 100 to 1000 | – |
| CN(c1nc(OC[C@@]23CCCN2C[C@H](F)C3)nc2c(F)c(-c3ccc(F)c4sc(N)c(C#N)c34)c(C(F)(F)F)cc12)[C@H]1C[C@@](C)(O)C1 [Compound 31, 2-amino-7-fluoro-4-(8-fluoro-2-(((2R,7aS)-2-fluorotetrahydro-1H-pyrrolizin-7a(5H)-yl)methoxy)-4-(((1s,3R)-3-hydroxy-3-methylcyclobutyl)(methyl)amino)-6-(trifluoromethyl)quinazolin-7-yl)benzo[b]thiophene-3-carbonitrile] | < 100 | 100 to 1000 | 1000 to 10000 | 100 to 1000 | 100 to 1000 | – |
| N#Cc1c(N)sc2c(F)ccc(-c3c(C(F)(F)F)cc4c(N5CCC(F)(F)C5)nc(OC[C@@]56CCCN5C[C@H](F)C6)nc4c3F)c12 [Compound 159] | < 100 | 100 to 1000 | 1000 to 10000 | 100 to 1000 | 100 to 1000 | – |
| N#Cc1c(N)sc2c(F)ccc(-c3c(C(F)(F)F)cc4c(N5CC[C@H]5CO)nc(OC[C@@]56CCCN5C[C@H](F)C6)nc4c3F)c12 [Compound 169] | < 100 | 100 to 1000 | 100 to 1000 | 100 to 1000 | 100 to 1000 | – |
| N#CC[C@H]1CN(c2nc(OC[C@@]34CCCN3C[C@H](F)C4)nc3c(F)c(-c4ccc(F)c5sc(N)c(C#N)c45)c(C(F)(F)F)cc23)CCO1 [Compound 137] | < 100 | 100 to 1000 | 1000 to 10000 | 100 to 1000 | 100 to 1000 | – |
| CN(c1nc(OC[C@@]23CCCN2C[C@H](F)C3)nc2c(F)c(-c3ccc(F)c4sc(N)c(C#N)c34)c(C(F)(F)F)cc12)[C@H]1C[C@H](O)C1 [Compound 23] | < 100 | 100 to 1000 | 100 to 1000 | 100 to 1000 | 100 to 1000 | – |
| CC(=O)N1CCN(c2nc(OC[C@@]34CCCN3C[C@H](F)C4)nc3c(F)c(-c4ccc(F)c5sc(N)c(C#N)c45)c(C(F)(F)F)cc23)C[C@@H]1CC#N [Compound 183] | 100 to 1000 | 1000 to 10000 | 1000 to 10000 | 1000 to 10000 | 1000 to 10000 | – |
| CCN(c1nc(OC[C@@]23CCCN2C[C@H](F)C3)nc2c(F)c(-c3ccc(F)c4sc(N)c(C#N)c34)c(C(F)(F)F)cc12)C(C)C [Compound 154] | < 100 | 100 to 1000 | 100 to 1000 | 100 to 1000 | 100 to 1000 | – |
